Source: patent US20120065126A1, “Pharmaceutical Compositions Containing Antifungal Peptides” (BASF SE, priority 2009, published 2012)

How the values were obtained:
Malassezia furfur = test: Incubation times between 5 minutes and 1 hour (CFU); assay type: cell-based
Description: The studies described hereinafter were conducted on the Malassezia furfur strain DSM 6170.
For this purpose, the concentrations 100 μM, 200 μM and 500 μM of P18 peptide and of zinc pyrithione as a control substance were used in the experiment. The experiments were conducted as follows:
The growth test was effected as follows: a shake culture containing M472 Pityrosporum medium was inoculated with M. furfur and incubated with shaking at 30° C. and 200 rpm overnight.
A 96-well microtiter plate was filled with 100 μl per well of M472 Pityrosporum medium and inoculated with M. furfur suspension from the overnight culture. The M. furfur suspension was adjusted at the start of the experiment to an optical density, measured at 600 nm, of 0.1.
The following growth was compared: • M. furfur suspension and addition of P18 peptide with a final concentration of 100 μM, plating after 5 minutes, 10 minutes, 20 minutes and 60 minutes • M. furfur suspension and addition of P18 peptide with a final concentration of 200 μM, plating after 5 minutes, 10 minutes, 20 minutes and 60 minutes • M. furfur suspension and addition of P18 peptide with a final concentration of 500 μM, plating after 5 minutes, 10 minutes, 20 minutes and 60 minutes • M. furfur suspension and addition of zinc pyrithione with a final concentration of 100 μM, plating after 5 minutes, 10 minutes, 20 minutes and 60 minutes • M. furfur suspension and addition of zinc pyrithione with a final concentration of 200 μM, plating after 5 minutes, 10 minutes, 20 minutes and 60 minutes • M. furfur suspension and addition of zinc pyrithione with a final concentration of 500 μM, plating after 5 minutes, 10 minutes, 20 minutes and 60 minutes
The microtiter plate was incubated with shaking at 30°.
After the incubation times specified, the colony forming units (CFU) were determined by streaking 50 μl of each of the suspensions and, after incubation over the course of 6 days, counting the colonies. The CFU was determined in order to rule out any influence of the biphasic medium, and also the growth form of M. furfur, on the optical density. The experiments were repeated independently of one another.

[1] = system: Trichophyton rubrum (DSM21146); test: Short-term effect (CFU); assay type: cell-based
Description: For this purpose, the procedure was as follows.
MEP growth medium according to DSMZ:
30 g of malt extract (Becton, Dickinson and Company, Sparks, USA) 3 g of soya peptone (Becton, Dickinson and Company, Sparks, USA) make up to 1 liter, set pH 5.6
The growth test was effected as follows: an agar plate on which the Trichophyton rubrum culture had grown was rinsed with 5 ml of MEP medium.
1.5 ml reaction vessels were each filled with 1 ml of MEP medium and inoculated with 10 μl of the T. rubrum suspension. The concentration of the peptide solution in water or ZPT solution (zinc pyrithione, >96%, Sigma Aldrich) dissolved in DMSO was 2% (w/w).
The following growth was compared: • T. rubrum suspension and addition of P18 peptide with a final concentration in the 1.5 ml reaction vessel of 50 ppm after 5 minutes, 10 minutes, 20 minutes and 60 minutes • T. rubrum suspension and addition of P18 peptide with a final concentration in the 1.5 ml reaction vessel of 100 ppm after 5 minutes, 10 minutes, 20 minutes and 60 minutes • T. rubrum suspension and addition of P18 peptide with a final concentration in the 1.5 ml reaction vessel of 200 ppm after 5 minutes, 10 minutes, 20 minutes and 60 minutes • T. rubrum suspension and addition of P18 peptide with a final concentration in the 1.5 ml reaction vessel of 500 ppm after 5 minutes, 10 minutes, 20 minutes and 60 minutes • T. rubrum suspension and addition of P18 peptide with a final concentration in the 1.5 ml reaction vessel of 1000 ppm after 5 minutes, 10 minutes, 20 minutes and 60 minutes • T. rubrum suspension and addition of ZPT with a final concentration in the 1.5 ml reaction vessel of 50 ppm after 5 minutes, 10 minutes, 20 minutes and 60 minutes • T. rubrum suspension and addition of ZPT with a final concentration in the 1.5 ml reaction vessel of 100 ppm after 5 minutes, 10 minutes, 20 minutes and 60 minutes • T. rubrum suspension and addition of ZPT with a final concentration in the 1.5 ml reaction vessel of 200 ppm after 5 minutes, 10 minutes, 20 minutes and 60 minutes • T. rubrum suspension and addition of ZPT with a final concentration in the 1.5 ml reaction vessel of 500 ppm after 5 minutes, 10 minutes, 20 minutes and 60 minutes • T. rubrum suspension and addition of ZPT with a final concentration in the 1.5 ml reaction vessel of 1000 ppm after 5 minutes, 10 minutes, 20 minutes and 60 minutes
The 1.5 ml reaction vessels were incubated at room temperature.
After the incubation times specified, the colony forming units (CFU) were determined by streaking 1 μl of each of the suspensions diluted with 20 μl of MEP medium and, after incubation for 2 days, counting the colonies.

Substance: H-KWKLFKKIPKFLHLAKKF-NH2 [P18, H-KWKLFKKIPKFLHLAKKF-NH2]
- Colony forming units after incubation time specified (Malassezia furfur; 100 μM, 5 minutes): >1000 CFU
- Colony forming units after incubation time specified (Malassezia furfur; 100 μM, 10 minutes): >1000 CFU
- Colony forming units after incubation time specified (Malassezia furfur; 100 μM, 20 minutes): 604 CFU
- Colony forming units after incubation time specified (Malassezia furfur; 100 μM, 60 minutes): 149 ± 60 CFU
- Colony forming units after incubation time specified (Malassezia furfur; 200 μM, 5 minutes): >1000 CFU
- Colony forming units after incubation time specified (Malassezia furfur; 200 μM, 10 minutes): >1000 CFU
- Colony forming units after incubation time specified (Malassezia furfur; 200 μM, 20 minutes): >1000 CFU
- Colony forming units after incubation time specified (Malassezia furfur; 200 μM, 60 minutes): 52 ± 16 CFU
- Colony forming units after incubation time specified (Malassezia furfur; 500 μM, 5 minutes): >1000 CFU
- Colony forming units after incubation time specified (Malassezia furfur; 500 μM, 10 minutes): 398 ± 290 CFU
- Colony forming units after incubation time specified (Malassezia furfur; 500 μM, 20 minutes): 26 ± 6 CFU
- Colony forming units after incubation time specified (Malassezia furfur; 500 μM, 60 minutes): 1 ± 1 CFU
- Colony forming units after the incubation time specified ([1]; 50 ppm, 5 minutes): 59 CFU
- Colony forming units after the incubation time specified ([1]; 50 ppm, 10 minutes): 55 CFU
- Colony forming units after the incubation time specified ([1]; 50 ppm, 20 minutes): 35 CFU
- Colony forming units after the incubation time specified ([1]; 50 ppm, 60 minutes): 23 CFU
- Colony forming units after the incubation time specified ([1]; 100 ppm, 5 minutes): 41 CFU
- Colony forming units after the incubation time specified ([1]; 100 ppm, 10 minutes): 22 CFU
- Colony forming units after the incubation time specified ([1]; 100 ppm, 20 minutes): 36 CFU
- Colony forming units after the incubation time specified ([1]; 100 ppm, 60 minutes): 18 CFU
- Colony forming units after the incubation time specified ([1]; 200 ppm, 5 minutes): 32 CFU
- Colony forming units after the incubation time specified ([1]; 200 ppm, 10 minutes): 39 CFU
- Colony forming units after the incubation time specified ([1]; 200 ppm, 20 minutes): 24 CFU
- Colony forming units after the incubation time specified ([1]; 200 ppm, 60 minutes): 5 CFU
- Colony forming units after the incubation time specified ([1]; 500 ppm, 5 minutes): 30 CFU
- Colony forming units after the incubation time specified ([1]; 500 ppm, 10 minutes): 18 CFU
- Colony forming units after the incubation time specified ([1]; 500 ppm, 20 minutes): 9 CFU
- Colony forming units after the incubation time specified ([1]; 500 ppm, 60 minutes): 1 CFU
- Colony forming units after the incubation time specified ([1]; 1000 ppm, 5 minutes): 17 CFU
- Colony forming units after the incubation time specified ([1]; 1000 ppm, 10 minutes): 18 CFU
- Colony forming units after the incubation time specified ([1]; 1000 ppm, 20 minutes): 10 CFU
- Colony forming units after the incubation time specified ([1]; 1000 ppm, 60 minutes): 2 CFU
- Factor of reduction of the living cell count ([1]; cell count 10 times higher (data not shown)): ≤ 2
- Factor of reduction of the living cell count ([1]; concentration range studied (50-1000 ppm), first 60 minutes): ≤ 20

Substance: zinc pyrithione [ZPT]
- Colony forming units after incubation time specified (Malassezia furfur; 100 μM, 5 minutes): >1000 CFU
- Colony forming units after incubation time specified (Malassezia furfur; 100 μM, 10 minutes): >1000 CFU
- Colony forming units after incubation time specified (Malassezia furfur; 100 μM, 20 minutes): >1000 CFU
- Colony forming units after incubation time specified (Malassezia furfur; 100 μM, 60 minutes): >1000 CFU
- Colony forming units after incubation time specified (Malassezia furfur; 200 μM, 5 minutes): >1000 CFU
- Colony forming units after incubation time specified (Malassezia furfur; 200 μM, 10 minutes): >1000 CFU
- Colony forming units after incubation time specified (Malassezia furfur; 200 μM, 20 minutes): >1000 CFU
- Colony forming units after incubation time specified (Malassezia furfur; 200 μM, 60 minutes): >1000 CFU
- Colony forming units after incubation time specified (Malassezia furfur; 500 μM, 5 minutes): >1000 CFU
- Colony forming units after incubation time specified (Malassezia furfur; 500 μM, 10 minutes): >1000 CFU
- Colony forming units after incubation time specified (Malassezia furfur; 500 μM, 20 minutes): >1000 CFU
- Colony forming units after incubation time specified (Malassezia furfur; 500 μM, 60 minutes): >1000 CFU
- Inhibition in words ([1]; 50-1000 ppm, up to 60 minutes): no significant inhibition
- Colony forming units after the incubation time specified ([1]; 50 ppm, 5 minutes): 44 CFU
- Colony forming units after the incubation time specified ([1]; 50 ppm, 10 minutes): 51 CFU
- Colony forming units after the incubation time specified ([1]; 50 ppm, 20 minutes): 51 CFU
- Colony forming units after the incubation time specified ([1]; 50 ppm, 60 minutes): 55 CFU
- Colony forming units after the incubation time specified ([1]; 100 ppm, 5 minutes): 38 CFU
- Colony forming units after the incubation time specified ([1]; 100 ppm, 10 minutes): 54 CFU
- Colony forming units after the incubation time specified ([1]; 100 ppm, 20 minutes): 50 CFU
- Colony forming units after the incubation time specified ([1]; 100 ppm, 60 minutes): 48 CFU
- Colony forming units after the incubation time specified ([1]; 200 ppm, 5 minutes): 44 CFU
- Colony forming units after the incubation time specified ([1]; 200 ppm, 10 minutes): 51 CFU
- Colony forming units after the incubation time specified ([1]; 200 ppm, 20 minutes): 56 CFU
- Colony forming units after the incubation time specified ([1]; 200 ppm, 60 minutes): 49 CFU
- Colony forming units after the incubation time specified ([1]; 500 ppm, 5 minutes): 43 CFU
- Colony forming units after the incubation time specified ([1]; 500 ppm, 10 minutes): 47 CFU
- Colony forming units after the incubation time specified ([1]; 500 ppm, 20 minutes): 51 CFU
- Colony forming units after the incubation time specified ([1]; 500 ppm, 60 minutes): 44 CFU
- Colony forming units after the incubation time specified ([1]; 1000 ppm, 5 minutes): 52 CFU
- Colony forming units after the incubation time specified ([1]; 1000 ppm, 10 minutes): 62 CFU
- Colony forming units after the incubation time specified ([1]; 1000 ppm, 20 minutes): 47 CFU
- Colony forming units after the incubation time specified ([1]; 1000 ppm, 60 minutes): 48 CFU
